≈ marks a conversion by molar mass, not a printed value.
Assays:
[1] = tested on: Thanatephorus cucumeris (Rhizoctonia solani); assay: Liquid-culture fungal growth inhibition test; assay type: cell-based
Alternaria solani [2] = assay type: cell-based; details: 20 ppm
Pythium dissimile = assay type: cell-based; details: 20 ppm
[3] = tested on: Mycosphaerella arachidis (Cercospora arachidicola); assay: Liquid-culture fungal growth inhibition test; assay type: cell-based
[4] = tested on: Botryotinia fuckeliana (Botrytis cinerea); assay: Liquid-culture fungal growth inhibition test; assay type: cell-based
[5] = tested on: Monographella nivalis (Microdochium nivale); assay: Liquid-culture fungal growth inhibition test; assay type: cell-based
mice = details: cited from earlier work
Phytophthora infestans [6] = assay type: in vivo; details: tomato, preventative, disease control relative to untreated check
Gibberella zeae = assay type: cell-based; details: 20 ppm
Sclerotinia sclerotiorum = assay: Liquid-culture fungal growth inhibition test; assay type: cell-based
Gaeumannomyces graminis = assay: Liquid-culture fungal growth inhibition test; assay type: cell-based
Botryotinia fuckeliana = assay type: cell-based; details: 20 ppm
Phytophthora infestans [7] = assay type: in vivo; details: 200 ppm
Pythium ultimum = assay: Liquid-culture fungal growth inhibition test; assay type: cell-based; details: antifungal activity relative to untreated check, photometric, 2-7 days
Puccinia recondita = assay: Leaf disk test at different concentrations, wheat; assay type: in vivo; details: for Leaf-piece test rates (20 ppm), efficacy / Leaf-piece test rates (60 ppm), efficacy / Leaf-piece test rates (200 ppm), efficacy: wheat, disease control relative to untreated check
Plasmopara viticola = assay: Leaf disk test at different concentrations, grapevine; assay type: in vivo; details: preventative, disease control relative to untreated check
Pyrenophora teres = assay: Leaf disk test at different concentrations, barley; assay type: in vivo; details: preventative, disease control relative to untreated check
HeLa cells = details: cited from earlier work
Fusarium culmorum = assay: Liquid-culture fungal growth inhibition test; assay type: cell-based; details: antifungal activity relative to untreated check, photometric, 2-7 days
Procedure: Suspensions of mycelial fragments or conidia of a fungal species, prepared either freshly from liquid cultures of the fungus or from cryogenic storage, were directly mixed into nutrient broth. DMSO solutions of Ilicicolin H (max. 10 mg/ml) were diluted with 0.025% Tween 20 by a factor of 50, and 10μ L of this solution was pipetted into a microtitre plate (96-well format). The nutrient broth containing the fungal spores/mycelia fragments was then added to give a final concentration of Ilicicolin H. The test plates were incubated in the dark at 24° C. and 96% relative humidity. The inhibition of fungal growth was determined photometrically after 2-7 days, depending on the pathosystem, and percent antifungal activity relative to the untreated check was calculated.

Uromyces viciae-fabae = assay type: in vivo; details: 100 ppm
[8] = tested on: Blumeria graminis f. sp. tritici (Erysiphe graminis); assay: Leaf disk test at different concentrations, wheat; assay type: in vivo; details: preventative, disease control relative to untreated check
[9] = tested on: Glomerella lagenarium (Colletotrichum lagenarium); assay: Liquid-culture fungal growth inhibition test; assay type: cell-based
Zymoseptoria tritici [10] = assay: Liquid-culture fungal growth inhibition test; assay type: cell-based
[11] = tested on: Magnaporthe grisea (Pyricularia oryzae); assay type: in vivo; details: rice, preventative, disease control relative to untreated check
Zymoseptoria tritici [12] = assay type: in vivo; details: 100 ppm
Alternaria solani [13] = assay: Leaf disk test at different concentrations, tomato; assay type: in vivo; details: preventative, disease control relative to untreated check
[14] = tested on: Phaeosphaeria nodorum (Septoria nodorum); assay: Leaf disk test at different concentrations, wheat; assay type: in vivo; details: preventative, disease control relative to untreated check
[15] = 0.2 ppm, antifungal activity relative to untreated check, photometric, 2-7 days
[16] = 2 ppm, antifungal activity relative to untreated check, photometric, 2-7 days
[17] = 20 ppm, antifungal activity relative to untreated check, photometric, 2-7 days

C/C=C/[C@H]1C(C(=O)c2c(O)c(-c3ccc(O)cc3)c[nH]c2=O)C=C(C)[C@H]2CC[C@H](C)C[C@@H]21 (stereo partly shown) [Ilicicolin H]
activity in liquid-culture test [1]: demonstrated activity | Liquid-culture test rates (0.2 ppm), efficacy [1, 15]: 0% | Liquid-culture test rates (2 ppm), efficacy [1, 16]: 50% | Liquid-culture test rates (20 ppm), efficacy [1, 17]: 70% | Disease control efficacy (average of two repeat experiments) (Alternaria solani [2]): 0 | activity in mycelial growth test (Alternaria solani [2]): not active | Disease control efficacy (average of two repeat experiments) (Pythium dissimile): 0 | activity in mycelial growth test (Pythium dissimile): not active | activity in liquid-culture test [3]: demonstrated activity | Liquid-culture test rates (0.2 ppm), efficacy [3, 15]: 0% | Liquid-culture test rates (2 ppm), efficacy [3, 16]: 100% | Liquid-culture test rates (20 ppm), efficacy [3, 17]: 100% | activity in liquid-culture test [4]: demonstrated activity | Liquid-culture test rates (0.2 ppm), efficacy [4, 15]: 0% | Liquid-culture test rates (2 ppm), efficacy [4, 16]: 70% | Liquid-culture test rates (20 ppm), efficacy [4, 17]: 100% | activity in liquid-culture test [5]: demonstrated activity | Liquid-culture test rates (0.2 ppm), efficacy [5, 15]: 0% | Liquid-culture test rates (2 ppm), efficacy [5, 16]: 100% | Liquid-culture test rates (20 ppm), efficacy [5, 17]: 100% | acute toxicity (mice): low acute toxicity | Leaf-piece test rates (20 ppm), efficacy (Phytophthora infestans [6]; 20 ppm): 0% | Leaf-piece test rates (60 ppm), efficacy (Phytophthora infestans [6]; 60 ppm): 0% | Leaf-piece test rates (200 ppm), efficacy (Phytophthora infestans [6]; 200 ppm): 0% | activity in mycelial growth test (Gibberella zeae): not active | Disease control efficacy (average of two repeat experiments) (Gibberella zeae; artificial media, visual 3 band score, 4 to 14 days after inoculation): 0 | activity in liquid-culture test (Sclerotinia sclerotiorum): demonstrated activity | Liquid-culture test rates (0.2 ppm), efficacy (Sclerotinia sclerotiorum; [15]): 0% | Liquid-culture test rates (2 ppm), efficacy (Sclerotinia sclerotiorum; [16]): 20% | Liquid-culture test rates (20 ppm), efficacy (Sclerotinia sclerotiorum; [17]): 50% | activity in liquid-culture test (Gaeumannomyces graminis): demonstrated activity | Liquid-culture test rates (0.2 ppm), efficacy (Gaeumannomyces graminis; [15]): 0% | Liquid-culture test rates (2 ppm), efficacy (Gaeumannomyces graminis; [16]): 90% | Liquid-culture test rates (20 ppm), efficacy (Gaeumannomyces graminis; [17]): 100% | Disease control efficacy (average of two repeat experiments) (Botryotinia fuckeliana): 99 | activity in mycelial growth test (Botryotinia fuckeliana): active | activity in leaf-piece assay (Phytophthora infestans [7]; tomato): active | Disease control efficacy (average of two repeat experiments) (Phytophthora infestans [7]; tomato leaf piece, applied prior to inoculation, visual 3 band score): 99 | Liquid-culture test rates (0.2 ppm), efficacy (Pythium ultimum; 0.2 ppm): 0% | Liquid-culture test rates (2 ppm), efficacy (Pythium ultimum; 2 ppm): 0% | Liquid-culture test rates (20 ppm), efficacy (Pythium ultimum; 20 ppm): 0% | Leaf-piece test rates (20 ppm), efficacy (Puccinia recondita; curative): 0% | Leaf-piece test rates (20 ppm), efficacy (Puccinia recondita; preventative): 0% | Leaf-piece test rates (60 ppm), efficacy (Puccinia recondita; curative): 0% | Leaf-piece test rates (60 ppm), efficacy (Puccinia recondita; preventative): 50% | Leaf-piece test rates (200 ppm), efficacy (Puccinia recondita; curative): 0% | Leaf-piece test rates (200 ppm), efficacy (Puccinia recondita; preventative): 90% | activity in leaf disk test (Puccinia recondita; wheat leaf disks): demonstrated activity | Leaf-piece test rates (20 ppm), efficacy (Plasmopara viticola; 20 ppm): 0% | Leaf-piece test rates (60 ppm), efficacy (Plasmopara viticola; 60 ppm): 0% | Leaf-piece test rates (200 ppm), efficacy (Plasmopara viticola; 200 ppm): 0% | Leaf-piece test rates (20 ppm), efficacy (Pyrenophora teres; 20 ppm): 0% | Leaf-piece test rates (60 ppm), efficacy (Pyrenophora teres; 60 ppm): 0% | Leaf-piece test rates (200 ppm), efficacy (Pyrenophora teres; 200 ppm): 0% | ED50 (cytotoxicity) (HeLa cells): 2 µg/mL (≈ 4.61 µM) | Liquid-culture test rates (0.2 ppm), efficacy (Fusarium culmorum; 0.2 ppm): 0% | Liquid-culture test rates (2 ppm), efficacy (Fusarium culmorum; 2 ppm): 0% | Liquid-culture test rates (20 ppm), efficacy (Fusarium culmorum; 20 ppm): 0% | Disease control efficacy (average of two repeat experiments) (Uromyces viciae-fabae): 49 | activity in leaf-piece assay (Uromyces viciae-fabae): active in one rep | Leaf-piece test rates (20 ppm), efficacy ([8]; 20 ppm): 0% | Leaf-piece test rates (60 ppm), efficacy ([8]; 60 ppm): 0% | Leaf-piece test rates (200 ppm), efficacy ([8]; 200 ppm): 0% | activity in liquid-culture test [9]: demonstrated activity | Liquid-culture test rates (0.2 ppm), efficacy [9, 15]: 0% | Liquid-culture test rates (2 ppm), efficacy [9, 16]: 50% | Liquid-culture test rates (20 ppm), efficacy [9, 17]: 100% | activity in liquid-culture test (Zymoseptoria tritici [10]): demonstrated activity | Liquid-culture test rates (0.2 ppm), efficacy (Zymoseptoria tritici [10]; [15]): 90% | Liquid-culture test rates (2 ppm), efficacy (Zymoseptoria tritici [10]; [16]): 100% | Liquid-culture test rates (20 ppm), efficacy (Zymoseptoria tritici [10]; [17]): 100% | Leaf-piece test rates (20 ppm), efficacy ([11]; 20 ppm): 0% | Leaf-piece test rates (60 ppm), efficacy ([11]; 60 ppm): 0% | Leaf-piece test rates (200 ppm), efficacy ([11]; 200 ppm): 0% | Disease control efficacy (average of two repeat experiments) (Zymoseptoria tritici [12]): 99 | activity in leaf-piece assay (Zymoseptoria tritici [12]): active | Leaf-piece test rates (20 ppm), efficacy (Alternaria solani [13]; 20 ppm): 0% | Leaf-piece test rates (60 ppm), efficacy (Alternaria solani [13]; 60 ppm): 0% | Leaf-piece test rates (200 ppm), efficacy (Alternaria solani [13]; 200 ppm): 0% | Leaf-piece test rates (20 ppm), efficacy ([14]; 20 ppm): 0% | Leaf-piece test rates (60 ppm), efficacy ([14]; 60 ppm): 0% | Leaf-piece test rates (200 ppm), efficacy ([14]; 200 ppm): 0%
